The results in this text go back to US11787796B2, “Plasma Kallikrein inhibitors and uses thereof” (Takeda Pharmaceutical Company Limited, priority 2019, dated 2023).

Molecules are shown by their SMILES.

Sequence of human activated kallikrein enzyme (P03952 391-638): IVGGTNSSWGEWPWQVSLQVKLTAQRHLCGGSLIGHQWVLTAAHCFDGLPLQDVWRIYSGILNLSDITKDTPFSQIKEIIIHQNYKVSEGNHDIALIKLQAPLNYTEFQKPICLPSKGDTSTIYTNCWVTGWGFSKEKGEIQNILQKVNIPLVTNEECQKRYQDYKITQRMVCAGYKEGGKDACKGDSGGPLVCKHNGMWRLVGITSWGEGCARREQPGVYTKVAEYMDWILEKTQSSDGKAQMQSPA
Sequence of human activated kallikrein enzyme (P03952 20-390 partner): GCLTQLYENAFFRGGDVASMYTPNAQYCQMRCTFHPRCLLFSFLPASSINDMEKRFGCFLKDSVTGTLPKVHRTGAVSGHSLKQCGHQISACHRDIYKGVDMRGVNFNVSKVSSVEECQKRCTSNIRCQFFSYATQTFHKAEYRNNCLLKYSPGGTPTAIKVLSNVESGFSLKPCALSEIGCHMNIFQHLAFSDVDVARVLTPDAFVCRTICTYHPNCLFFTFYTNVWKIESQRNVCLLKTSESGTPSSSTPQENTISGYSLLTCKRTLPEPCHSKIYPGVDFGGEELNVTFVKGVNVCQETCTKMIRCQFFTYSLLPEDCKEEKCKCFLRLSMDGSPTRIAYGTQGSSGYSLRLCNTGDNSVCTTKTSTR

In this assay the target is human activated kallikrein enzyme (Homo sapiens (Human), UniProt P03952). The assay is described as follows: Plasma kallikrein inhibition assay with fluorogenic peptide substrate, 500 pM activated kallikrein format. It is filed as biochemical. Conditions: 500 pM activated kallikrein; 300 uM Pro-Phe-Arg-7-amido-4-methylcoumarin substrate; 30 min preincubation, 10 min reaction at RT; read-out: Primary Dose Response Assay: Average EC50. In a few lines:
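Pro-Phe-Arg-7-amido-4-methylcoumarin substrate (300 uM) started reactions after a 30 min RT enzyme–inhibitor preincubation. This format used 500 pM activated human kallikrein in Tris pH 7.5 buffer with EDTA, NaCl, PEG-400 and Triton X-100. AMC fluorescence (380/460 nm) was measured after 10 min at RT.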
In the case of `COc1ccc(C#N)c(CNC(=O)c2cnn(Cc3cn4cc(C5CC5)ccc4n3)c2)c1F` [Example I-119, N-(6-cyano-2-fluoro-3-methoxybenzyl)-1-((6-cyclopropylimidazo[1,2-a]pyridin-2-yl)methyl)-1H-pyrazole-4-carboxamide], the EC50 lay in the range of 1 to 10 nM. For the molecule `O=C(NCc1cc(=O)[nH]c2ccccc12)c1cnn(Cc2cn3cc(C4CC4)ccc3n2)c1` [Example I-120, 1-((6-cyclopropylimidazo[1,2-a]pyridin-2-yl)methyl)-N-((2-oxo-1,2-dihydroquinolin-4-yl)methyl)-1H-pyrazole-4-carboxamide], the EC50 was in the range of 10 to 100 nM. Next, `O=C(NCc1cccc(Cl)c1)c1cnn(Cc2cn3cc(C4CC4)ccc3n2)c1` [Example I-121, N-(3-chlorobenzyl)-1-((6-cyclopropylimidazo[1,2-a]pyridin-2-yl)methyl)-1H-pyrazole-4-carboxamide]: 100 to 2000 nM; `O=C(NCc1cc(=O)[nH]c2ccc(Br)cc12)c1cnn(Cc2cn3cc(C4CC4)ccc3n2)c1` [Example I-122, N-((6-bromo-2-oxo-1,2-dihydroquinolin-4-yl)methyl)-1-((6-cyclopropylimidazo[1,2-a]pyridin-2-yl)methyl)-1H-pyrazole-4-carboxamide]: 1 to 10 nM; `Cc1cc2[nH]cc(Cl)c2c(C)c1CNC(=O)c1cnn(Cc2cn3cc(C4CC4)ccc3n2)c1` [Example I-123, N-((3-chloro-4,6-dimethyl-1H-indol-5-yl)methyl)-1-((6-cyclopropylimidazo[1,2-a]pyridin-2-yl)methyl)-1H-pyrazole-4-carboxamide]: 10 to 100 nM. With `Cc1cc2[nH]ccc2c(C)c1CNC(=O)c1cnn(Cc2cn3cc(C4CC4)ccc3n2)c1` [Example I-124, 1-((6-cyclopropylimidazo[1,2-a]pyridin-2-yl)methyl)-N-((4,6-dimethyl-1H-indol-5-yl)methyl)-1H-pyrazole-4-carboxamide] the figure was 10 to 100 nM. In the case of `O=C(NCc1cc(Cl)ccc1-n1cnnn1)c1cnn(Cc2cn3cc(C4CC4)ccc3n2)c1` [Example I-125, N-(5-chloro-2-(1H-tetrazol-1-yl)benzyl)-1-((6-cyclopropylimidazo[1,2-a]pyridin-2-yl)methyl)-1H-pyrazole-4-carboxamide], the EC50 fell in the range of 1 to 10 nM. Next, `O=C(NCc1csc2ccc(Cl)cc12)c1cnn(Cc2cn3cc(C4CC4)ccc3n2)c1` [Example I-128, N-((5-chlorobenzo[b]thiophen-3-yl)methyl)-1-((6-cyclopropylimidazo[1,2-a]pyridin-2-yl)methyl)-1H-pyrazole-4-carboxamide]: 100 to 2000 nM; `O=C(NCCOc1cccc(Cl)c1)c1cnn(Cc2cn3cc(C4CC4)ccc3n2)c1` [Example I-129, N-(2-(3-chlorophenoxy)ethyl)-1-((6-cyclopropylimidazo[1,2-a]pyridin-2-yl)methyl)-1H-pyrazole-4-carboxamide]: 100 to 2000 nM.

`O=C(NCc1cccc2ccc(Cl)cc12)c1cnn(Cc2cn3cc(C4CC4)ccc3n2)c1` [Example I-130, N-((7-chloronaphthalen-1-yl)methyl)-1-((6-cyclopropylimidazo[1,2-a]pyridin-2-yl)methyl)-1H-pyrazole-4-carboxamide]: the EC50 is 2000 to 7100 nM. Regarding `O=C(NCc1nccc2ccc(Cl)cc12)c1cnn(Cc2cn3cc(C4CC4)ccc3n2)c1` [Example I-131, N-((7-chloroisoquinolin-1-yl)methyl)-1-((6-cyclopropylimidazo[1,2-a]pyridin-2-yl)methyl)-1H-pyrazole-4-carboxamide], the EC50 was 100 to 2000 nM. With `O=C(NCCc1cccc(Br)c1)c1cnn(Cc2cn3cc(C4CC4)ccc3n2)c1` [Example I-132, N-(3-bromophenethyl)-1-((6-cyclopropylimidazo[1,2-a]pyridin-2-yl)methyl)-1H-pyrazole-4-carboxamide] the figure was 100 to 2000 nM; with `O=C(NCc1cccc2ccc(Br)cc12)c1cnn(Cc2cn3cc(C4CC4)ccc3n2)c1` [Example I-133, N-((7-bromonaphthalen-1-yl)methyl)-1-((6-cyclopropylimidazo[1,2-a]pyridin-2-yl)methyl)-1H-pyrazole-4-carboxamide], 2000 to 7100 nM; with `Cc1cc2c(N)noc2c(C)c1CNC(=O)c1cnn(Cc2cn3cc(C4CC4)ccc3n2)c1` [Example I-134, N-((3-amino-5,7-dimethylbenzo[d]isoxazol-6-yl)methyl)-1-((6-cyclopropylimidazo[1,2-a]pyridin-2-yl)methyl)-1H-pyrazole-4-carboxamide], 2000 to 7100 nM. On to `O=C(NC1CCc2c(Cl)ccn3cnc1c23)c1cn(Cc2cn3cc(C4CC4)ccc3n2)nn1` (centres unmarked) [Example I-135, N-(6-chloro-8,9-dihydro-7H-imidazo[4,5,1-ij]quinolin-9-yl)-1-((6-cyclopropylimidazo[1,2-a]pyridin-2-yl)methyl)-1H-1,2,3-triazole-4-carboxamide], for which the EC50 is 10 to 100 nM. Turning to `O=C(NCc1ccc2nccn2c1)c1cn(Cc2cn3cc(C4CC4)ccc3n2)nn1` [Example I-136, 1-((6-cyclopropylimidazo[1,2-a]pyridin-2-yl)methyl)-N-(imidazo[1,2-a]pyridin-6-ylmethyl)-1H-1,2,3-triazole-4-carboxamide], the EC50 is 100 to 2000 nM.

As for `O=C(NCc1ncc2c(F)cc(Cl)cn12)c1cnn(Cc2cn3cc(C4CC4)ccc3n2)c1` [Example I-137, N-((6-chloro-8-fluoroimidazo[1,5-a]pyridin-3-yl)methyl)-1-((6-cyclopropylimidazo[1,2-a]pyridin-2-yl)methyl)-1H-pyrazole-4-carboxamide], the EC50 was in the range of 100 to 2000 nM. Next, `COc1ccnc(CNC(=O)c2cn(Cc3cn4cc(C5CC5)cc(CCN(C)C)c4n3)nn2)c1F` [Example I-138, 1-((6-cyclopropyl-8-(2-(dimethylamino)ethyl)imidazo[1,2-a]pyridin-2-yl)methyl)-N-((3-fluoro-4-methoxypyridin-2-yl)methyl)-1H-1,2,3-triazole-4-carboxamide]: 1 to 10 nM. Take `COc1ccnc(CNC(=O)c2cn(Cc3cn4cc(C5CC5)cc(N5CCN(C)CC5)c4n3)nn2)c1F` [Example I-139, 1-((6-cyclopropyl-8-(4-methylpiperazin-1-yl)imidazo[1,2-a]pyridin-2-yl)methyl)-N-((3-fluoro-4-methoxypyridin-2-yl)methyl)-1H-1,2,3-triazole-4-carboxamide]: the EC50 was no more than 1 nM.

In the case of `O=C(NCc1cc2occc2cn1)c1cn(Cc2cn3cc(C4CC4)ccc3n2)nn1` [Example I-140, 1-((6-cyclopropylimidazo[1,2-a]pyridin-2-yl)methyl)-N-(furo[3,2-c]pyridin-6-ylmethyl)-1H-1,2,3-triazole-4-carboxamide], the EC50 lay within 100 to 2000 nM. Take `O=C(NCc1cc2c(cn1)CCO2)c1cn(Cc2cn3cc(C4CC4)ccc3n2)nn1` [Example I-141, 1-((6-cyclopropylimidazo[1,2-a]pyridin-2-yl)methyl)-N-((2,3-dihydrofuro[3,2-c]pyridin-6-yl)methyl)-1H-1,2,3-triazole-4-carboxamide]: the EC50 was in the range of 10 to 100 nM.

For `O=C(NCc1cc(Cl)ccn1)c1cn(Cc2cn3cc(C4CC4)ccc3n2)nn1` [Example I-142, N-((4-chloropyridin-2-yl)methyl)-1-((6-cyclopropylimidazo[1,2-a]pyridin-2-yl)methyl)-1H-1,2,3-triazole-4-carboxamide], the EC50 is 2000 to 7100 nM. With `O=C(NCc1cc2cc[nH]c2cn1)c1cn(Cc2cn3cc(C4CC4)ccc3n2)nn1` [Example I-144, N-((1H-pyrrolo[2,3-c]pyridin-5-yl)methyl)-1-((6-cyclopropylimidazo[1,2-a]pyridin-2-yl)methyl)-1H-1,2,3-triazole-4-carboxamide] the figure was 1 to 10 nM; with `O=C(NCc1nccc(Cl)n1)c1cn(Cc2cn3cc(C4CC4)ccc3n2)nn1` [Example I-145, N-((4-chloropyrimidin-2-yl)methyl)-1-((6-cyclopropylimidazo[1,2-a]pyridin-2-yl)methyl)-1H-1,2,3-triazole-4-carboxamide], 100 to 2000 nM; with `O=C(NCc1cc2c(Cl)c[nH]c2cn1)c1cn(Cc2cn3cc(C4CC4)ccc3n2)nn1` [Example I-146, N-((3-chloro-1H-pyrrolo[2,3-c]pyridin-5-yl)methyl)-1-((6-cyclopropylimidazo[1,2-a]pyridin-2-yl)methyl)-1H-1,2,3-triazole-4-carboxamide], 1 to 10 nM. Next, `NCc1cc2c(cn1)N(C(=O)c1cn(Cc3cn4cc(C5CC5)ccc4n3)nn1)CC2` [Example I-147, (5-(aminomethyl)-2,3-dihydro-1H-pyrrolo[2,3-c]pyridin-1-yl)(1-((6-cyclopropylimidazo[1,2-a]pyridin-2-yl)methyl)-1H-1,2,3-triazol-4-yl)methanone]: 100 to 2000 nM.

On to `O=C(NCc1cc2c(cn1)NCC2)c1cn(Cc2cn3cc(C4CC4)ccc3n2)nn1` [Example I-148, 1-((6-cyclopropylimidazo[1,2-a]pyridin-2-yl)methyl)-N-((2,3-dihydro-1H-pyrrolo[2,3-c]pyridin-5-yl)methyl)-1H-1,2,3-triazole-4-carboxamide], for which the EC50 was 100 to 2000 nM. Turning to `O=C(NCc1cc2c(cn1)NCCO2)c1cn(Cc2cn3cc(C4CC4)ccc3n2)nn1` [Example I-149, 1-((6-cyclopropylimidazo[1,2-a]pyridin-2-yl)methyl)-N-((3,4-dihydro-2H-pyrido[4,3-b][1,4]oxazin-7-yl)methyl)-1H-1,2,3-triazole-4-carboxamide], the EC50 lay within 10 to 100 nM. With `O=C(NCc1cc2c(cn1)CCCO2)c1cn(Cc2cn3cc(C4CC4)ccc3n2)nn1` [Example I-150, 1-((6-cyclopropylimidazo[1,2-a]pyridin-2-yl)methyl)-N-((3,4-dihydro-2H-pyrano[3,2-c]pyridin-7-yl)methyl)-1H-1,2,3-triazole-4-carboxamide], the EC50 is 100 to 2000 nM.
